Our source for the IC50 values is patent US20260001892A1, “COMPOUND FOR REGULATING AND CONTROLLING ACTIVITY OF 15-PGDH AND PREPARATION METHOD THEREFOR” (SCINNOHUB PHARMACEUTICAL CO., LTD., priority 2022, published 2026).

Chain of 15-PGDH (P15428 whole entry): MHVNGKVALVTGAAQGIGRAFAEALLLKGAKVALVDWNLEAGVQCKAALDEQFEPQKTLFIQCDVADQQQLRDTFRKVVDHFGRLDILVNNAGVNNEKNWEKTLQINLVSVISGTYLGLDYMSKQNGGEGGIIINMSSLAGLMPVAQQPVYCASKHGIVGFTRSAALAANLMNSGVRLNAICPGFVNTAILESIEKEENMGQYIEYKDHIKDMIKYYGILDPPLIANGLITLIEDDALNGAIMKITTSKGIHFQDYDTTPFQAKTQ

For the experiment, the target named is 15-PGDH (Homo sapiens (Human), UniProt P15428). The experiment is described as follows: Detection of activity of 15-PGDH enzyme. The following applies: inhibitory activity against 15-PGDH enzyme; substrates β-NAD and PGF2α; fluorescence Ex/Em=340/450. The experiment is classed as biochemical. Here is the method:
• a. A solution of pH 7.5 containing 50 mM Tris-HCl, 0.01% Tween 20 was prepared with ultrapure water as a reaction buffer; • b. A 10 mM mother liquor of the compound to be tested was prepared with DMSO, and then the reaction buffer was used to dilute the mother liquor of the compound to be tested to obtain solution 1 of the compound to be tested at a concentration of 40,000 nM, and then the solution 1 of the compound to be tested was serially diluted into solutions 2-9 (or 2-12) of the compound to be tested at 9 (or 11) concentrations with a gradient difference of three-fold. 5 μL of each concentration of solutions of the compound to be tested was respectively taken and added into a 384-well plate as test wells; • c. 5 μL of the reaction buffer was then added to the blank wells of the 384-well plate as positive control and blank control wells, respectively; • d. The reaction buffer was used to prepare a 15-PGDH protein solution at a concentration of 5 ng/μL, 5 μL of the 15-PGDH protein solution was taken and added to the test wells and positive control wells, and meanwhile 5 μL of the reaction buffer was added to the blank control wells, then the plate was centrifuged at 2000 rpm for 30 seconds; • e. The reaction buffer was used to prepare 5 mM $3-NAD and 2 mM PGF2α, respectively, which were mixed at 1:1 by volume to obtain a substrate mixture, 10 μL of the substrate mixture was taken and added to the test wells, positive control wells and blank control wells to start the reaction; • f. The fluorescence signal value (Ex/Em=340/450) of each well was detected continuously by using a multifunctional microplate reader.
• a) Continuous fluorescence signal values were analyzed by using the “kinetic calculations-slope calculation method” in the PHERAstar Data analysis software to obtain the slope of each test well; • b) The inhibition rate % was calculated by using the following formula: inhibition rate %=[1−(slope of test well-signal value of positive control well)/(signal value of blank control well-average signal value of positive control well)]×100%. • c) Calculation of IC50 and plotting of inhibition rate-dose curves: IC50 values were calculated by fitting compound concentrations and corresponding inhibition rates with a nonlinear regression (dose response-variable slope) via using GraphPad Prism 6.0. The formula was shown below:
Y=Bottom+(Top−Bottom)/(1+10^((Log IC50−X)*HillSlope)), wherein X is a log value of a concentration of the compound, and Y is inhibition rate %.
On to `CN1Cc2cc(-c3cnc4c(C(F)(F)F)c(C(=O)N5CCCCC5)sc4n3)ccc2C1=O` [Example 94], for which the IC50 (in general, the concentration needed to halve the response being measured) was in the range of 3 to 10 nM.

For `Cc1cc(-c2cnc3c(C#N)c(C(=O)N4CCCCC4)sc3n2)ccn1` [Example 57], the half-inhibitory concentration (IC50) fell in the range of 3 to 10 nM.

Compound `Cc1ccc(-c2cnc3c(C#N)c(C(=O)N4CCCCC4)sc3n2)cn1` [Example 51] yielded an IC50 of 10 to 20 nM.

As for `CN(C)c1ncc(-c2cnc3c(C4CC4)c(C(=O)N4CCCCC4)sc3n2)cn1` [Example 30], the IC50 was in the range of 3 to 10 nM.

For `Cc1c(C(=O)N2CCCCC2)sc2nc(-c3ccccc3)cnc12` [Example 96], the IC50 lay in the range of 10 to 20 nM.

As to `Cn1cc(-c2cnc3c(C(F)(F)F)c(C(=O)N4CCCCC4)sc3n2)ccc1=O` [Example 71], the IC50 is 3 to 10 nM.

`N#Cc1c(C(=O)N2CCCCC2)sc2nc(-c3cnc(N)nc3)cnc12` [Example 60]: the IC50 is 3 to 10 nM.

`O=C(c1sc2nc(-c3ccc4ncsc4c3)cnc2c1C1CC1)N1CCCCC1` [Example 13] had a 50% inhibitory concentration (IC50) of 3 to 10 nM.

On to `Nc1cc(-c2cnc3c(C(F)(F)F)c(C(=O)N4CCCCC4)sc3n2)ccn1` [Example 83], for which the IC50 is 3 to 10 nM.

`O=C(c1sc2nc(-c3cnc(N4CCOCC4)nc3)cnc2c1C(F)(F)F)N1CCCCC1` [Example 89] had an IC50 of 10 to 20 nM.

Consider `N#Cc1c(C(=O)N2CCCCC2)sc2nc(-c3ccc4nccnc4c3)cnc12` [Example 45], for which the IC50 was 3 to 10 nM.

With `Cn1cc(-c2cnc3c(C4CC4)c(C(=O)N4CCCCC4)sc3n2)cn1` [Example 10], the IC50 was 3 to 10 nM.

Take `CCc1c(C(=O)N2CCCCC2)sc2nc(-c3ccccc3)cnc12` [Example 97]: the IC50 was 3 to 10 nM.

In the case of `O=C(c1sc2nc(-c3ccnc(C(F)(F)F)c3)cnc2c1C1CC1)N1CCCCC1` [Example 25], the IC50 was in the range of 10 to 20 nM.

In the case of `O=C(c1sc2nc(-c3ccc4nccnc4c3)cnc2c1C1CC1)N1CCCCC1` [Example 20], the IC50 lay within 3 to 10 nM.
